Measured values published in the NIST ThermoML archive (doi:10.1021/acs.jced.5b00892).
± gives the expanded uncertainty stated by the source.

Conditions: Liquid, Gas chromatography

CC/C=C/C=C/CCCCCCCCOC(C)=O [(9E,11E)-tetradeca-9,11-dienyl acetate]
Conditions | vapor or sublimation pressure [kPa]
298.15 K | 1.5e-05 ± 9e-06
310 K | 6.3e-05 ± 3e-05
320 K | 0.00019 ± 9e-05
330 K | 0.00051 ± 0.00022
340 K | 0.0013 ± 0.0006
350 K | 0.0031 ± 0.0014
360 K | 0.007 ± 0.003
370 K | 0.015 ± 0.007
380 K | 0.03 ± 0.013
390 K | 0.058 ± 0.024
400 K | 0.11 ± 0.043
410 K | 0.19 ± 0.073
420 K | 0.33 ± 0.12
430 K | 0.54 ± 0.18
440 K | 0.87 ± 0.27
450 K | 1.4 ± 0.39
460 K | 2.1 ± 0.54
470 K | 3 ± 0.73
480 K | 4.4 ± 0.93
490 K | 6.2 ± 1.1
500 K | 8.6 ± 1.4

CC/C=C/CCCCCCCCCCOC(C)=O [(E)-tetradec-11-enyl acetate]
Conditions | vapor or sublimation pressure [kPa]
298.15 K | 2.8e-05 ± 1.6e-05
310 K | 0.00011 ± 5e-05
320 K | 0.00032 ± 0.00014
330 K | 0.00086 ± 0.00037
340 K | 0.0021 ± 0.0009
350 K | 0.0049 ± 0.002
360 K | 0.011 ± 0.005
370 K | 0.022 ± 0.01
380 K | 0.044 ± 0.018
390 K | 0.084 ± 0.035
400 K | 0.15 ± 0.059
410 K | 0.27 ± 0.098
420 K | 0.45 ± 0.16
430 K | 0.73 ± 0.24
440 K | 1.2 ± 0.35
450 K | 1.8 ± 0.5
460 K | 2.7 ± 0.69
470 K | 3.9 ± 0.9
480 K | 5.6 ± 1.2
490 K | 7.8 ± 1.4
500 K | 11 ± 1.7

CCC/C=C\CCCCCCCOC(C)=O [(Z)-dodec-8-enyl acetate]
Conditions | vapor or sublimation pressure [kPa]
298 K | 0.00027 ± 0.00016
310 K | 0.00091 ± 0.00041
320 K | 0.0023 ± 0.0008
330 K | 0.0056 ± 0.0016
340 K | 0.013 ± 0.003
350 K | 0.027 ± 0.004
360 K | 0.053 ± 0.006
370 K | 0.1 ± 0.009
380 K | 0.19 ± 0.017
390 K | 0.33 ± 0.032
400 K | 0.56 ± 0.061
410 K | 0.93 ± 0.11
420 K | 1.5 ± 0.19
430 K | 2.3 ± 0.31
440 K | 3.5 ± 0.45
450 K | 5.1 ± 0.63
460 K | 7.3 ± 0.85
470 K | 10 ± 1.1
480 K | 14.1 ± 1.4
490 K | 19 ± 1.9
500 K | 25 ± 3.1

CCCC/C=C\CCCCCCCCCCCCOC(C)=O [(Z)-octadec-13-en-1-yl acetate]
Conditions | vapor or sublimation pressure [kPa]
298.15 K | 4.1e-07 ± 2.6e-07
310 K | 2.2e-06 ± 1.2e-06
320 K | 8.2e-06 ± 4.2e-06
330 K | 2.7e-05 ± 1.3e-05
340 K | 8.3e-05 ± 4e-05
350 K | 0.00023 ± 0.00012
360 K | 0.00061 ± 0.0003
370 K | 0.0015 ± 0.0007
380 K | 0.0034 ± 0.0017
390 K | 0.0074 ± 0.0036
400 K | 0.015 ± 0.007
410 K | 0.03 ± 0.013
420 K | 0.056 ± 0.024
430 K | 0.1 ± 0.041
440 K | 0.18 ± 0.067
450 K | 0.3 ± 0.11
460 K | 0.48 ± 0.16
470 K | 0.76 ± 0.23
480 K | 1.2 ± 0.31
490 K | 1.7 ± 0.42
500 K | 2.5 ± 0.55

CCCCCCCC/C=C\CCCOC(C)=O [(Z)-tridec-4-enyl acetate]
Conditions | vapor or sublimation pressure [kPa]
298 K | 0.00012 ± 8e-05
310 K | 0.00042 ± 0.0002
320 K | 0.0011 ± 0.0004
330 K | 0.0028 ± 0.0008
340 K | 0.0065 ± 0.0015
350 K | 0.0142 ± 0.0024
360 K | 0.029 ± 0.004
370 K | 0.058 ± 0.006
380 K | 0.11 ± 0.01
390 K | 0.2 ± 0.02
400 K | 0.34 ± 0.038
410 K | 0.57 ± 0.072
420 K | 0.92 ± 0.12
430 K | 1.5 ± 0.21
440 K | 2.2 ± 0.32
450 K | 3.3 ± 0.46
460 K | 4.8 ± 0.62
470 K | 6.9 ± 0.81
480 K | 9.6 ± 1.1
490 K | 13 ± 1.4
500 K | 18 ± 2

CCOC(=O)/C=C(C)/C=C/C[C@@H](C)CCCC(C)C [ethyl (S,2E,4E)-3,7,11-trimethyldodeca-2,4-dienoate]
Conditions | vapor or sublimation pressure [kPa]
298.15 K | 1.4e-05 ± 8e-06
310 K | 5.7e-05 ± 2.8e-05
320 K | 0.00017 ± 8e-05
330 K | 0.00047 ± 0.0002
340 K | 0.0012 ± 0.0005
350 K | 0.0029 ± 0.0013
360 K | 0.0065 ± 0.0028
370 K | 0.014 ± 0.006
380 K | 0.028 ± 0.012
390 K | 0.054 ± 0.022
400 K | 0.1 ± 0.041
410 K | 0.18 ± 0.067
420 K | 0.3 ± 0.11
430 K | 0.5 ± 0.17
440 K | 0.81 ± 0.25
450 K | 1.3 ± 0.37
460 K | 1.9 ± 0.52
470 K | 2.8 ± 0.69
480 K | 4.1 ± 0.87
490 K | 5.8 ± 1.1
500 K | 8 ± 1.3

C#CCOC(=O)/C=C(C)/C=C/CC(C)CCCC(C)C (configuration not stated) [prop-2-ynyl (2E,4E)-3,7,11-trimethyldodeca-2,4-dienoate]
Conditions | vapor or sublimation pressure [kPa]
298.15 K | 4.2e-06 ± 2.4e-06
310 K | 1.9e-05 ± 1e-05
320 K | 6.1e-05 ± 2.8e-05
330 K | 0.00018 ± 8e-05
340 K | 0.00049 ± 0.00022
350 K | 0.0012 ± 0.0006
360 K | 0.0029 ± 0.0013
370 K | 0.0065 ± 0.003
380 K | 0.014 ± 0.006
390 K | 0.028 ± 0.012
400 K | 0.053 ± 0.022
410 K | 0.098 ± 0.039
420 K | 0.17 ± 0.065
430 K | 0.29 ± 0.11
440 K | 0.49 ± 0.16
450 K | 0.78 ± 0.25
460 K | 1.2 ± 0.35
470 K | 1.8 ± 0.48
480 K | 2.7 ± 0.63
490 K | 3.9 ± 0.79
500 K | 5.5 ± 0.96
